{"source": "ChEMBL document CHEMBL4507263", "about": "“Data for DCP probe BAY-474” (2021)", "key": {"[1]": {"biological_target": "Mitogen-activated protein kinase 12 (Homo sapiens) (UniProt P53778)", "test": "SAPK3 (h) Millipore kinase activity assay", "details": "Compound concentration 1.0 uM"}, "[2]": {"biological_target": "Epidermal growth factor receptor (Homo sapiens) (UniProt P00533)", "test": "Inhibition of Epidermal Growth Factor (EGF) at 10 µM in the Eurofins-Panlabs radioligand binding assay (Eurofins_assay_225510)", "details": "Compound concentration 10.0 uM"}, "[3]": {"biological_target": "Kappa-type opioid receptor (Homo sapiens) (UniProt P41145)", "sequence (P41145 whole entry)": "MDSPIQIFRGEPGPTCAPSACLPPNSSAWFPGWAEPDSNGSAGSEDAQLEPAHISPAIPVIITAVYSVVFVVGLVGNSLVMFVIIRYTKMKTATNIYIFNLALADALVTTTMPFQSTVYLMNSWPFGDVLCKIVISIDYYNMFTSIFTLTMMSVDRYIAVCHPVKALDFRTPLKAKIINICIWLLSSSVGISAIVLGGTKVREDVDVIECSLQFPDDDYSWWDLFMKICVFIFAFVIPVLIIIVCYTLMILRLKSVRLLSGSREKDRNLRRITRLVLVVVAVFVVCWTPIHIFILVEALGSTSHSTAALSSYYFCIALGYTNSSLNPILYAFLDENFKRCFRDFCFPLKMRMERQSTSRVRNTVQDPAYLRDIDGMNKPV", "details": "Compound concentration 10.0 uM"}, "[4]": {"biological_target": "Serine/threonine-protein kinase PLK2 (Homo sapiens) (UniProt Q9NYY3)", "test": "Snk (h) Millipore kinase activity assay", "details": "Compound concentration 1.0 uM"}, "[5]": {"biological_target": "Serine/threonine-protein kinase STK11 (Homo sapiens) (UniProt Q15831)", "test": "LKB1 (h) Millipore kinase activity assay", "details": "Compound concentration 1.0 uM"}, "[6]": {"biological_target": "Protein kinase C gamma type (Homo sapiens) (UniProt P05129)", "test": "PKCgamma(h) Millipore kinase activity assay", "details": "Compound concentration 1.0 uM"}, "[7]": {"biological_target": "Alpha-1A adrenergic receptor (Homo sapiens) (UniProt P35348)", "details": "Compound concentration 10.0 uM"}, "[8]": {"biological_target": "RAF proto-oncogene serine/threonine-protein kinase (Homo sapiens) (UniProt P04049)", "test": "c-RAF (h) Millipore kinase activity assay", "details": "Compound concentration 1.0 uM"}, "[9]": {"biological_target": "Casein kinase I isoform gamma-3 (Homo sapiens) (UniProt Q9Y6M4)", "test": "CK1gamma3 (h) Millipore kinase activity assay", "details": "Compound concentration 1.0 uM"}, "[10]": {"biological_target": "Mast/stem cell growth factor receptor Kit (Homo sapiens) (UniProt P10721)", "test": "cKit (h) Millipore kinase activity assay", "details": "Compound concentration 1.0 uM"}, "[11]": {"biological_target": "Discoidin domain-containing receptor 2 (Homo sapiens) (UniProt Q16832)", "sequence (Q16832 whole entry, the tested form may be a part)": "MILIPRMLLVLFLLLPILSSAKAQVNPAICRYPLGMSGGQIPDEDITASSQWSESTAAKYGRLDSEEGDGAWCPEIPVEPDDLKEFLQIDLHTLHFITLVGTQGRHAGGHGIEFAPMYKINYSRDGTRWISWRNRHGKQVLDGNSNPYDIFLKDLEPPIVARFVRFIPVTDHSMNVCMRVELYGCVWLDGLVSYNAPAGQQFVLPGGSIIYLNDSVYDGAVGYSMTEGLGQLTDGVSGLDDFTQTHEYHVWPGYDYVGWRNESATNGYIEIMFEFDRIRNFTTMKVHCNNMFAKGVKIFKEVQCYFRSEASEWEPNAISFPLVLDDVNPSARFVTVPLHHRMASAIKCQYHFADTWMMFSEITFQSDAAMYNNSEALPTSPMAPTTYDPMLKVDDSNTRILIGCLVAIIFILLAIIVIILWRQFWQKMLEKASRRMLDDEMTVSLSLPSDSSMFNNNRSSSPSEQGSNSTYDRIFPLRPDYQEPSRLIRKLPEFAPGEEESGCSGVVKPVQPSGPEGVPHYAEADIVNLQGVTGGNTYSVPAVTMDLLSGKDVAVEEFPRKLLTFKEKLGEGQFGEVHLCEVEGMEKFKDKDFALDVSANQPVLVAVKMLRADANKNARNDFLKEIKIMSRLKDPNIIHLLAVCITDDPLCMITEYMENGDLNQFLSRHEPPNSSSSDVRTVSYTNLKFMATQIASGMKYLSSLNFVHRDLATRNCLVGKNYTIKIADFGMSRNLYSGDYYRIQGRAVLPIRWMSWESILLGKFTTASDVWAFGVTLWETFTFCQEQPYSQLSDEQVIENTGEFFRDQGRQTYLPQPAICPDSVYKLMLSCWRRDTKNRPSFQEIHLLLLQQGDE", "test": "DDR2 (h) Millipore kinase activity assay", "details": "Compound concentration 1.0 uM"}, "[12]": {"biological_target": "Glycogen synthase kinase-3 alpha (Homo sapiens) (UniProt P49840)", "test": "GSK3alpha (h) Millipore kinase activity assay", "details": "Compound concentration 1.0 uM"}, "[13]": {"biological_target": "Dual specificity mitogen-activated protein kinase kinase 4 (Mus musculus) (UniProt P47809)", "sequence (P47809 whole entry)": "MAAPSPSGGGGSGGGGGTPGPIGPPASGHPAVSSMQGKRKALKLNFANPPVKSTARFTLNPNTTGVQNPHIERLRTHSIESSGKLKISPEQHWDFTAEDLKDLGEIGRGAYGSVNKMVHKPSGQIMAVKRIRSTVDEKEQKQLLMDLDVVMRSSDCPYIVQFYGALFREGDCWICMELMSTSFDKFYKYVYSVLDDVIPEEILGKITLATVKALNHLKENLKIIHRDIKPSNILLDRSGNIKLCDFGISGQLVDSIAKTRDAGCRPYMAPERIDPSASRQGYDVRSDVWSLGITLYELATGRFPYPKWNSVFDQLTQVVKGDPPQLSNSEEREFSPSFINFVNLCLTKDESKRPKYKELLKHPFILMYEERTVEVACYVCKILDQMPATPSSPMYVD", "test": "MKK4 (m) Millipore kinase activity assay", "details": "Compound concentration 1.0 uM"}, "[14]": {"biological_target": "Protein-tyrosine kinase 6 (Homo sapiens) (UniProt Q13882)", "sequence (Q13882 whole entry, looked up)": "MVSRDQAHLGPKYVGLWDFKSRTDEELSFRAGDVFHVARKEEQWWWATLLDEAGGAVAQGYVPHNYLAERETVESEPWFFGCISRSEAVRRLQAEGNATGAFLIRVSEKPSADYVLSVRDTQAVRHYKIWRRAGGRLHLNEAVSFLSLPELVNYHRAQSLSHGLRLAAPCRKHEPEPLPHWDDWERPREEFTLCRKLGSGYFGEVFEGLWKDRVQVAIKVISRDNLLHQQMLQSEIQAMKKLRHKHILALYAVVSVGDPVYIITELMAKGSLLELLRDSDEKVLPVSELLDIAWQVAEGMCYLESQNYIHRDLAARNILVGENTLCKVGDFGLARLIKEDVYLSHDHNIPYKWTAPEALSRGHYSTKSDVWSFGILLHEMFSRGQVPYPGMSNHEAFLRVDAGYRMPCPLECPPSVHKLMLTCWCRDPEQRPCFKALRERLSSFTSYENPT", "test": "BRK (h) Millipore kinase activity assay", "details": "Compound concentration 1.0 uM"}, "[15]": {"biological_target": "Ephrin type-A receptor 7 (Homo sapiens) (UniProt Q15375)", "test": "EphA7 (h) Millipore kinase activity assay", "details": "Compound concentration 1.0 uM"}, "[16]": {"biological_target": "Serine/threonine-protein kinase Chk2 (Homo sapiens) (UniProt O96017)", "test": "CHK2 (h) Millipore kinase activity assay", "details": "Compound concentration 1.0 uM"}, "[17]": {"biological_target": "Calcium/calmodulin-dependent protein kinase type II subunit beta (Homo sapiens) (UniProt Q13554)", "test": "CaMKIIbeta (h) Millipore kinase activity assay", "details": "Compound concentration 1.0 uM"}, "[18]": {"biological_target": "Bone morphogenetic protein receptor type-2 (Homo sapiens) (UniProt Q13873)", "details": "Compound concentration 1000.0 nM"}, "[19]": {"biological_target": "Sodium-dependent noradrenaline transporter (Homo sapiens) (UniProt P23975)", "details": "Compound concentration 10.0 uM"}, "[20]": {"biological_target": "Serine/threonine-protein kinase N1 (Homo sapiens) (UniProt Q16512)", "details": "Compound concentration 1000.0 nM"}, "[21]": {"biological_target": "Serine/threonine-protein kinase 38 (Homo sapiens) (UniProt Q15208)", "details": "Compound concentration 1000.0 nM"}, "[22]": {"species_on_record": "Rattus norvegicus", "details": "Compound concentration 10.0 uM"}, "[23]": {"test_system": "Epidermal growth factor receptor (Homo sapiens), P00533 [UNDEFINED MUTATION]", "details": "Compound concentration 1000.0 nM"}, "[24]": {"biological_target": "Calcium/calmodulin-dependent protein kinase kinase 2 (Homo sapiens) (UniProt Q96RR4)", "sequence (Q96RR4 2-588 limits assumed)": "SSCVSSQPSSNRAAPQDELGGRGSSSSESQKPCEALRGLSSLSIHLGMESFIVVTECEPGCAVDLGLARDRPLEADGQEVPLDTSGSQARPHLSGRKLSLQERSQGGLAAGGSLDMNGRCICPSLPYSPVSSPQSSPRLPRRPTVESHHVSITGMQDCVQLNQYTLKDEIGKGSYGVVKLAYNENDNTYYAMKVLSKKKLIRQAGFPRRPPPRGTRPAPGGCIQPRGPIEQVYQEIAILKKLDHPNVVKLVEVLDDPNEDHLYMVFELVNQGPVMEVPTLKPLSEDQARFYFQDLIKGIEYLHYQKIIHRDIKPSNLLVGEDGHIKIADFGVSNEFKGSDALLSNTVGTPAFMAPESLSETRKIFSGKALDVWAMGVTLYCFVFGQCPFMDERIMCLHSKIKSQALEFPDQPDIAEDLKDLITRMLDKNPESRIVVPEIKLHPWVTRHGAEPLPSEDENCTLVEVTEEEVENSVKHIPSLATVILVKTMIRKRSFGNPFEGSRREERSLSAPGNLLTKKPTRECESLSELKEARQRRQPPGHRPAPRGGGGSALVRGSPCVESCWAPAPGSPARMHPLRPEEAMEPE", "details": "Compound concentration 1000.0 nM"}, "[25]": {"test_system": "Epidermal growth factor receptor (Homo sapiens), P00533 [L858R]", "details": "Compound concentration 1000.0 nM"}, "[26]": {"biological_target": "TRAF2 and NCK-interacting protein kinase (Homo sapiens) (UniProt Q9UKE5)", "details": "Compound concentration 1000.0 nM"}, "[27]": {"biological_target": "Ribosomal protein S6 kinase alpha-6 (Homo sapiens) (UniProt Q9UK32)", "details": "Compound concentration 1000.0 nM"}, "[28]": {"biological_target": "Ankyrin repeat and protein kinase domain-containing protein 1 (Homo sapiens) (UniProt Q8NFD2)", "details": "Compound concentration 1000.0 nM"}, "[29]": {"biological_target": "Mitogen-activated protein kinase 4 (Homo sapiens) (UniProt P31152)", "details": "Compound concentration 1000.0 nM"}, "[30]": {"biological_target": "Interleukin-1 receptor-associated kinase 4 (Homo sapiens) (UniProt Q9NWZ3)", "details": "Compound concentration 1000.0 nM"}, "[31]": {"biological_target": "Phosphatidylinositol 4,5-bisphosphate 3-kinase catalytic subunit alpha isoform (Homo sapiens) (UniProt P42336)", "details": "Compound concentration 1000.0 nM"}, "[32]": {"biological_target": "Tyrosine-protein kinase Srms (Homo sapiens) (UniProt Q9H3Y6)", "sequence (Q9H3Y6 whole entry)": "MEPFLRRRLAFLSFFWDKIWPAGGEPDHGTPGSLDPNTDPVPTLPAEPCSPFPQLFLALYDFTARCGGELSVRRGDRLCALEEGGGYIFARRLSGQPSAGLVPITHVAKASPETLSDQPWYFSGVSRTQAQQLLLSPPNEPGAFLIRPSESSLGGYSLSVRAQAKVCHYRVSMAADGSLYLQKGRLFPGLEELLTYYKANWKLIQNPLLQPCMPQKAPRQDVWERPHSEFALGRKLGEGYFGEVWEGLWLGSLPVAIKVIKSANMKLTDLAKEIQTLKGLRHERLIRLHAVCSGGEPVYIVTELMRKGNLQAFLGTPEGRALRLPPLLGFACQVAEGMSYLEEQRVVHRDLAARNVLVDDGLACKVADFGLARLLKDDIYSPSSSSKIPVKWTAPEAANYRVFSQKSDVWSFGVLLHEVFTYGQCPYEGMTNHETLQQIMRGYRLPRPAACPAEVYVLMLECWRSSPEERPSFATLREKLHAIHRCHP", "details": "Compound concentration 1000.0 nM"}, "[33]": {"test": "GPCRScan assay: inhibition of GABA/PBR", "design": "species or system Rattus norvegicus; radioligand conc. used [nm] 0.3 – 2.0, parental cells brain tissue"}, "[34]": {"biological_target": "LIM domain kinase 1 (Homo sapiens) (UniProt P53667)", "sequence (P53667 whole entry, looked up, the tested form may be a part)": "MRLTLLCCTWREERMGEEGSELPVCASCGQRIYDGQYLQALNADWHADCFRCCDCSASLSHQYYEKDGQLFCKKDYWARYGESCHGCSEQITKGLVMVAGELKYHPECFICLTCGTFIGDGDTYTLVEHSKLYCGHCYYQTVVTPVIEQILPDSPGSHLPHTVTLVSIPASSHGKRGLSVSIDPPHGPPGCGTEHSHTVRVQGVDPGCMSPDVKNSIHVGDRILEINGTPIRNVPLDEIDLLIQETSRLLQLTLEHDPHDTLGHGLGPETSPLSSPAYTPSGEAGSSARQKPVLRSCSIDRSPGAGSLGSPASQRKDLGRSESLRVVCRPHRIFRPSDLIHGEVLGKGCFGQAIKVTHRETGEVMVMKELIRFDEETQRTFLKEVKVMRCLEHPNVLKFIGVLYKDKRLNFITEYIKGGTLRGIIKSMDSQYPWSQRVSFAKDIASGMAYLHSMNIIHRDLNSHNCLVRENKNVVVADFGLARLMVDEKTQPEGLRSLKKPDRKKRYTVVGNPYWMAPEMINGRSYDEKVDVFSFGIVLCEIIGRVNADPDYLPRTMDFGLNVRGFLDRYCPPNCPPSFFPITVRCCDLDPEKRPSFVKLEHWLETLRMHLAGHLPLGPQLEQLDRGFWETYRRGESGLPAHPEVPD", "details": "Compound concentration 1000.0 nM"}, "[35]": {"biological_target": "Mitogen-activated protein kinase kinase kinase kinase 3 (Homo sapiens) (UniProt Q8IVH8)", "details": "Compound concentration 1000.0 nM"}, "[36]": {"biological_target": "Ribosomal protein S6 kinase alpha-5 (Homo sapiens) (UniProt O75582)", "details": "Compound concentration 1000.0 nM"}, "[37]": {"biological_target": "Ephrin type-A receptor 2 (Homo sapiens) (UniProt P29317)", "details": "Compound concentration 1000.0 nM"}, "[38]": {"biological_target": "NUAK family SNF1-like kinase 1 (Homo sapiens) (UniProt O60285)", "details": "Compound concentration 1000.0 nM"}, "[39]": {"biological_target": "Myotonin-protein kinase (Homo sapiens) (UniProt Q09013)", "sequence (Q09013 whole entry)": "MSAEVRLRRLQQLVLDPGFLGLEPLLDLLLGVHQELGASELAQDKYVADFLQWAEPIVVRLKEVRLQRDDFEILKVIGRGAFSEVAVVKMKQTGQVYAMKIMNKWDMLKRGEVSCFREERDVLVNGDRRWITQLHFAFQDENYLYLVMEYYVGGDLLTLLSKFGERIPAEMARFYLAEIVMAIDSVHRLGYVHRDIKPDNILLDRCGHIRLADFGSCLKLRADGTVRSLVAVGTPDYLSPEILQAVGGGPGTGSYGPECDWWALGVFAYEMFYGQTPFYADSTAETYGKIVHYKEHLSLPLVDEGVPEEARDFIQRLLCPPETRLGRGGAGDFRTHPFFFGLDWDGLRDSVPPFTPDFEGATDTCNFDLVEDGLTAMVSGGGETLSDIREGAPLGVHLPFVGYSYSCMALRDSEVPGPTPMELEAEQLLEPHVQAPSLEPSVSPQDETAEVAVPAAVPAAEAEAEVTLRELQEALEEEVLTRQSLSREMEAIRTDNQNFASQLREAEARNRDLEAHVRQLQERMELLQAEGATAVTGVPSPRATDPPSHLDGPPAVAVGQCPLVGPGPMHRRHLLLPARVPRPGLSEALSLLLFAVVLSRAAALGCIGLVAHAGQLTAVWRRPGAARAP", "details": "Compound concentration 1000.0 nM"}, "[40]": {"biological_target": "RAC-beta serine/threonine-protein kinase (Homo sapiens) (UniProt P31751)", "details": "Compound concentration 1000.0 nM"}, "[41]": {"biological_target": "Serine/threonine-protein kinase OSR1 (Homo sapiens) (UniProt O95747)", "sequence (O95747 2-527 limits assumed)": "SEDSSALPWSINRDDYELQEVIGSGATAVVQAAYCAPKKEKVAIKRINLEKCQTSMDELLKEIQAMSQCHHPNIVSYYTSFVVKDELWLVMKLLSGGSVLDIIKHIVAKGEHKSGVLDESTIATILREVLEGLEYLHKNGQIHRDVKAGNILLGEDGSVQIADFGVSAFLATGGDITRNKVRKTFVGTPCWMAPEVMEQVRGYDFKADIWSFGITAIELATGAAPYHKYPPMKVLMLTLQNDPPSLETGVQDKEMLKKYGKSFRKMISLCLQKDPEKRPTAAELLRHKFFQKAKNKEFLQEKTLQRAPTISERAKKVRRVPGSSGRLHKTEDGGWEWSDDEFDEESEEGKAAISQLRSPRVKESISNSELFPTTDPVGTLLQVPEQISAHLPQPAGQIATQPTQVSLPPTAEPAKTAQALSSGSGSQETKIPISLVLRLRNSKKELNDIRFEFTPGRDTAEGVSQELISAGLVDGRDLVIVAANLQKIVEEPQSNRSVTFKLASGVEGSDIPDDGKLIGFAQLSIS", "details": "Compound concentration 1000.0 nM"}, "[42]": {"biological_target": "Serine/threonine-protein kinase Nek10 (Homo sapiens) (UniProt Q6ZWH5)", "details": "Compound concentration 1000.0 nM"}, "[43]": {"biological_target": "Phosphorylase b kinase gamma catalytic chain, skeletal muscle/heart isoform (Homo sapiens) (UniProt Q16816)", "details": "Compound concentration 1000.0 nM"}, "[44]": {"biological_target": "Ephrin type-A receptor 3 (Homo sapiens) (UniProt P29320)", "details": "Compound concentration 1000.0 nM"}, "[45]": {"biological_target": "Serine/threonine-protein kinase NIM1 (Homo sapiens) (UniProt Q8IY84)", "details": "Compound concentration 1000.0 nM"}, "[46]": {"biological_target": "Dual specificity protein kinase TTK (Homo sapiens) (UniProt P33981)", "details": "Compound concentration 1000.0 nM"}}, "data": [{"compound": "CC1=C(C#N)C(c2ccc3[nH]nc(C)c3c2)C(C#N)=C(C)N1", "note": "[BAY-474]", "values": [{"measurement": "inhibition", "setting": "[1]", "result": 8, "unit": "%"}, {"measurement": "inhibition", "setting": "[2]", "result": 7, "unit": "%"}, {"measurement": "inhibition", "setting": "[3]", "result": 7, "unit": "%"}, {"measurement": "inhibition", "setting": "[4]", "result": 3, "unit": "%"}, {"measurement": "inhibition", "setting": "[5]", "result": -8, "unit": "%"}, {"measurement": "inhibition", "setting": "[6]", "result": 18, "unit": "%"}, {"measurement": "inhibition", "setting": "[7]", "result": 15.6, "unit": "%"}, {"measurement": "inhibition", "setting": "[8]", "result": 1, "unit": "%"}, {"measurement": "inhibition", "setting": "[9]", "result": 21, "unit": "%"}, {"measurement": "inhibition", "setting": "[10]", "result": -7, "unit": "%"}, {"measurement": "inhibition", "setting": "[11]", "result": 12, "unit": "%"}, {"measurement": "inhibition", "setting": "[12]", "result": -3, "unit": "%"}, {"measurement": "inhibition", "setting": "[13]", "result": 31, "unit": "%"}, {"measurement": "inhibition", "setting": "[14]", "result": -7, "unit": "%"}, {"measurement": "inhibition", "setting": "[15]", "result": -2, "unit": "%"}, {"measurement": "inhibition", "setting": "[16]", "result": 4, "unit": "%"}, {"measurement": "inhibition", "setting": "[17]", "result": 4, "unit": "%"}]}, {"compound": "CC1=C(C#N)[C@@H](c2ccc3[nH]nc(C)c3c2)C(C#N)=C(c2ccc(Cl)cc2)N1", "note": "[BAY-827]", "values": [{"measurement": "residual activity", "setting": "[18]", "result": 100, "unit": "%"}, {"measurement": "inhibition", "setting": "[19]", "result": 8.56, "unit": "%"}, {"measurement": "residual activity", "setting": "[20]", "result": 91.4, "unit": "%"}, {"measurement": "residual activity", "setting": "[21]", "result": 92.3, "unit": "%"}, {"measurement": "inhibition", "setting": "[22]", "result": 69.5, "unit": "%"}, {"measurement": "residual activity", "setting": "[23]", "result": 100, "unit": "%"}, {"measurement": "residual activity", "setting": "[24]", "result": 86.5, "unit": "%"}, {"measurement": "residual activity", "setting": "[25]", "result": 89.5, "unit": "%"}, {"measurement": "residual activity", "setting": "[26]", "result": 100, "unit": "%"}, {"measurement": "residual activity", "setting": "[27]", "result": 100, "unit": "%"}, {"measurement": "residual activity", "setting": "[28]", "result": 100, "unit": "%"}, {"measurement": "residual activity", "setting": "[29]", "result": 89.6, "unit": "%"}, {"measurement": "residual activity", "setting": "[30]", "result": 100, "unit": "%"}, {"measurement": "residual activity", "setting": "[31]", "result": 100, "unit": "%"}, {"measurement": "residual activity", "setting": "[32]", "result": 92.7, "unit": "%"}, {"measurement": "Ki", "setting": "[33]", "result": 2400, "unit": "nM"}, {"measurement": "pKi", "setting": "[33]", "result": 5.67}, {"measurement": "residual activity", "setting": "[34]", "result": 100, "unit": "%"}, {"measurement": "residual activity", "setting": "[35]", "result": 100, "unit": "%"}, {"measurement": "residual activity", "setting": "[36]", "result": 100, "unit": "%"}, {"measurement": "residual activity", "setting": "[37]", "result": 100, "unit": "%"}, {"measurement": "residual activity", "setting": "[38]", "result": 100, "unit": "%"}, {"measurement": "residual activity", "setting": "[39]", "result": 100, "unit": "%"}, {"measurement": "residual activity", "setting": "[40]", "result": 100, "unit": "%"}, {"measurement": "residual activity", "setting": "[41]", "result": 100, "unit": "%"}, {"measurement": "residual activity", "setting": "[42]", "result": 59.6, "unit": "%"}, {"measurement": "residual activity", "setting": "[43]", "result": 100, "unit": "%"}, {"measurement": "residual activity", "setting": "[44]", "result": 100, "unit": "%"}, {"measurement": "residual activity", "setting": "[45]", "result": 100, "unit": "%"}, {"measurement": "residual activity", "setting": "[46]", "result": 75.7, "unit": "%"}]}]}
